Reference: US20230404953A1, “COMPOUND FOR THE REDUCTION OF WHITE ADIPOSE TISSUE AND THE TREATMENT OF OVERWEIGHT AND OBESITY” (UNIVERSIDAD DE GRANADA, priority 2020, published 2023)

Experiments:
[1] = tested on: wild-type mice with a standard diet; experiment: Liver morphology of mice with a standard diet (H&E and Oil Red O staining); format: in vivo; conditions: standard diet + 0.33% (w/w) β-RA; 18 months of age; male and female mice
From the text: (§1) In this example intended for long-term evaluation during the aging process, the animals were kept on a standard rodent diet consisting mainly of carbohydrates (66% carbohydrates, 21% proteins, and 13% fats as energy sources), where these mice accumulate fat as they age, imitating a situation of overweight associated with age.
(§2) The experimental treatment was based on the administration of β-RA in the chow feed at a concentration of 0.33% (weight/weight), which represents a dose of 0.25-0.75 g/kg of body weight/day.
(§3) The mice were put under treatment after weaning at 21 days of life, with said treatment being maintained for the entire life of the animals. Analyses were performed at 18 months of life, unless another age is indicated, after 17 months of treatment.
In this example, photographs have been taken of the animals and tissues after dissection. The tissues were fixed in formalin and embedded in paraffin. Several sections (4 μm thick) were deparaffinized with xylene and stained with hematoxylin and eosin staining (Luna-Sanchez M, Diaz-Casado E, Barca E, Tejada M A, Montilla-Garcia A, Cobos E J, Escames G, Acuna-Castroviejo D, Quinzii C M, Lopez L C (2015) The clinical heterogeneity of coenzyme Q10 deficiency results from genotypic differences in the Coq9 gene. EMBO Mol Med 7: 670-87). […]

[2] = tested on: wild-type mice with a standard diet; experiment: Survival and phenotypic state of mice with a standard diet (overweight associated with age); format: in vivo
From the text: (§4) For the studies, c57Bl6j strain control mice were used under the protocols approved by the Animal Experimentation Ethics Committee of the University of Granada and registered by the competent body, the General Directorate of Agricultural and Livestock Production of the Ministry of Agriculture, Livestock, Fisheries, and Sustainable Development of the Regional Government of Andalusia, under reference numbers 18/02/2019/016 and 16/09/2019/153.
as §1, §2, §3
(§5) Survival and body weight were determined through continuous records throughout the life of the animals. Motor coordination and activity were evaluated through the rotarod test. The muscle strength of the hind limbs was evaluated through the grip strength test. The image and the weight of the tissues were taken immediately after sacrificing and dissecting the animals.

[3] = tested on: wild-type mice with a HFHS diet; experiment: Plasma levels of insulin and GIP in mice with a HFHS diet; format: in vivo; conditions: HFHS diet + β-RA, 16 weeks
From the text: (§6) In this example intended for performing a short-term evaluation in an induced metabolic syndrome model, the animals were fed on a high fat high sucrose (HFHS) diet (32% carbohydrates, 14% proteins, and 54% fats as energy sources), where said mice experience a higher fat gain, imitating a state of obesity.
as §2
(§7) The mice were put under treatment at two months of life, with said treatment being maintained for 4 months. Analyses were performed at 6 months of life, after 4 months of treatment.
Plasma levels of insulin and gastric inhibitory peptide (GIP), also called glucose-dependent insulinotropic peptide, given that both of them tend to increase in cases of obesity with insulin resistance, were determined. […] The administration of β-RA to mice with a HFHS diet reduced the plasma levels of insulin (FIG. 14A) and GIP (FIG. 14B), normalizing said values.

[4] = tested on: wild-type mice with a HFHS diet; experiment: Phenotypic state of mice with a high fat high sucrose (HFHS) diet (induced obesity); format: in vivo; conditions: HFHS diet + 0.33% (w/w) β-RA, 16 weeks
From the text: as §4, §6, §2, §7, §5

kidney mitochondria = experiment: Kidney mitochondrial proteome in mice with a standard diet; format: in vivo
Procedure: To check if β-RA has effects on energy metabolism in mitochondria, a study was performed on the mitochondrial proteome of kidneys, because the highest β-RA levels are reached in this tissue (see Table 1).
Each kidney was dissected, and the mitochondrial fraction was then isolated by differential centrifugation. Each pellet was resuspended in […] of HEENK medium with a protease inhibitor. The samples were lysed, digested, and treated prior to injection in UHPLC. After quality control, the samples were injected into a UHPLC 1290 system (Agilent Technologies; Santa Clara, USA) coupled to a Q Exactive HF mass spectrometer (Thermo Scientific; Bremen, Germany) in the previously described conditions (Liu F, Lossl P, Rabbitts B M, Balaban R S, Heck A J R (2018) The interactome of intact mitochondria by cross-linking mass spectrometry provides evidence for coexisting respiratory supercomplexes. Mol Cell Proteomics 17: 216-232). The raw files generated were analyzed using MaxQuant v1.6.10 software (Cox J, Mann M (2008) MaxQuant enables high peptide identification rates, individualized p.p.b.-range mass accuracies and proteome-wide protein quantification. Nat Biotechnol 26: 1367-72). The files generated with MaxQuant were analyzed with Perseus: LFQ data was log 2-transformed, and identifications that were present in at least 3 of the 5 replicates were kept for subsequent analyses. For the volcano plot, a P-value threshold of 0.01 and 1 for the LFQ value log 2 difference has been established.

white adipocytes = experiment: Morphology of WAT in mice with a HFHS diet (hematoxylin and eosin staining); format: in vivo; conditions: HFHS diet + β-RA, 16 weeks
From the text: as §6, §2, §7
(§8) At the level of WAT, CoQ metabolism was evaluated by determining the levels of the major form of CoQ in rodents, i.e., CoQ9, as well as the levels of two limiting enzymes in the CoQ biosynthesis pathway, i.e., the hydroxylase Coq7 and the methyltransferase Coq5. […] These molecular changes translate into morphological changes observed with hematoxylin and eosin staining. […] As a result, the area occupied by adipocytes after treatment with a HFHS diet is larger than after treatment with the standard diet, with the number of adipocytes being smaller. Treatment with β-RA normalizes both the area of the adipocytes (FIG. 16G) and the number thereof (FIG. 16H).

[5] = tested on: white adipose tissue (WAT); experiment: CoQ metabolism in white adipose tissue of mice with a HFHS diet; format: in vivo; conditions: HFHS diet + β-RA, 16 weeks
From the text: as §6, §2, §7, §8

3T3L1 preadipocytes = experiment: MTT cell proliferation assay in preadipocytes; format: cell-based; conditions: 1 mM β-RA for 5 days, proliferation conditions
Procedure: (§9) It is known that one of the WAT expansion mechanisms is hyperplasia, i.e., the capacity of WAT to recruit new adipocytes proliferated from precursor cells. To check whether the effect of β-RA on WAT may also constitute a direct action on WAT, the proliferative capacity of a preadipocyte cell line (3T3L1) subjected to treatment with β-RA was determined in in vitro assays, and the results were compared with those obtained in a myoblast cell line (C2C12). This could be used to determine whether the possible effects are specific of a given cell type, excluding those signals and consequences resulting from the physiological context of the in vivo studies. Preadipocyte cell line 3T3L1 and myoblast cell line C2C12 were provided by the Cell Culture Department of the Science Instrumentation Center of the University of Granada. The cells were cultured in glucose-rich DMEM-GlutaMAX supplemented with 10% BCS or FBS, 1% non-essential amino acids MEM, and 1% antibiotic/antimycotic. Treatment with β-RA was administered at a concentration of 1 mM for 5 days. A control group was also treated with vehicle (DMSO) at the same concentration (Luna-Sanchez et al., 2015). The proliferation assay was performed with Vybrant® MTT Cell Proliferation Assay Kit (ThermoFisher Scientific), following the indications of the manufacturing company.

[6] = CAG-CreER^T2; Mclk1^Loxp/Loxp control mice; cited from earlier work
C2C12 myoblasts = experiment: MTT cell proliferation assay in myoblasts; format: cell-based; conditions: 1 mM β-RA for 5 days, proliferation conditions
Procedure: as §9

[7] = Quantification of β-RA levels in mouse tissues by HPLC-UV; format: in vivo; conditions: wild-type mice 3 months of age, β-RA in standard diet at 0.33% (w/w), oral, mean±SD
Procedure: The experimental treatment was based on the administration of β-RA in the chow feed at a concentration of 0.33% (weight/weight), which represents a dose of 0.25-0.75 g/kg of body weight/day. […] Therefore, β-RA has been chronically administered orally. The quantification of β-RA was carried out by means of HPLC-UV using an Ultra Aqueous C18 column and a mobile phase consisting of 20 mM potassium phosphate and 15% acetonitrile (pH 2.5). The standard curve consisted of β-RA at a concentration of 5, 25, and 100 μg/mL. In this example, β-RA levels were determined in order to know the bioavailability of the compound when it is administered orally. It has been observed that β-RA appears in the brain, kidneys, liver, and skeletal muscle, with the kidneys being the tissues having the highest level of the compound (Table 1).

[8] = standard diet + 0.33% (w/w) β-RA, 18 months of age

Structure (SMILES): O=C(O)c1ccc(O)cc1O [β-RA, 2,4-dihydroxybenzoic acid]
- Onset of hepatic steatosis (lipid droplets in liver) [1]: prevented
- Body weight ([2]; standard diet + 0.33% (w/w) β-RA from weaning, all stages of development, male and female): reduction of weight
- Survival ([2]; standard diet + 0.33% (w/w) β-RA from weaning, old-age stage (18-24 months)): increase in survival
- Amount of abdominal and visceral fat [2, 8]: reduction in the amount of abdominal and visceral fat
- Motor coordination (rotarod test) [2, 8]: slight upward trend
- Muscle strength of the hind limbs (grip strength test) [2, 8]: remained unchanged and even slightly increased in reference to the total weight of the animal
- Weight of the skeletal muscles ([2]; standard diet + 0.33% (w/w) β-RA, 18 months of age, hind limbs): maintained in the normal range
- Plasma levels of gastric inhibitory peptide (GIP) [3]: reduced
- Plasma levels of insulin [3]: reduced
- Abdominal and visceral fat [4]: reduction of abdominal and visceral fat
- Skeletal muscle mass [4]: do not cause any changes
- Body weight (increase induced by HFHS diet) ([4]; male and female): counteracted said increase in weight
- Changes in the mitochondrial proteome: proteins of acetyl-CoA production from pyruvate and of the Krebs cycle (kidney mitochondria; mice with standard diet + β-RA): an increase in proteins linked to the metabolic pathways for the production of acetyl-CoA from pyruvate and of the tricarboxylic acid cycle or Krebs cycle
- Expr Fold Change, ACO2 (kidney mitochondria; β-RA treated vs untreated mice, Aconitase 2 (Q99KI0)): 1.383
- Expr Fold Change, SUCLG1 (kidney mitochondria; β-RA treated vs untreated mice, Succinate CoA ligase subunit alpha (Q9WUM5)): 1.301
- Expr Fold Change, SUCLG2 (kidney mitochondria; β-RA treated vs untreated mice, Succinate CoA ligase subunit beta (Q9Z2I8)): 1.189
- Expr Fold Change, CS (kidney mitochondria; β-RA treated vs untreated mice, citrate synthase (Q9CZU6)): 1.485
- Expr Fold Change, DLAT (kidney mitochondria; β-RA treated vs untreated mice, dihydrolipoamide S-acetyltransferase (Q8BMF4)): 1.638
- Expr Fold Change, DLST (kidney mitochondria; β-RA treated vs untreated mice, dihydrolipoamide S-succinyltransferase (Q9D2G2)): 2.316
- Expr Fold Change, DLD (kidney mitochondria; β-RA treated vs untreated mice, dihydrolipoamide dehydrogenase (O08749)): 1.831
- Expr Fold Change, IDH3A (kidney mitochondria; β-RA treated vs untreated mice, isocitrate dehydrogenase (NAD(+)) 3 catalytic subunit alpha (Q9D6R2)): 1.72
- Expr Fold Change, IDH3B (kidney mitochondria; β-RA treated vs untreated mice, isocitrate dehydrogenase (NAD(+)) 3 non-catalytic subunit beta (Q91VA7)): 1.727
- Expr Fold Change, IDH3G (kidney mitochondria; β-RA treated vs untreated mice, isocitrate dehydrogenase (NAD(+)) 3 non-catalytic subunit gamma (P70404)): 1.573
- Expr Fold Change, MDH2 (kidney mitochondria; β-RA treated vs untreated mice, malate dehydrogenase 2 (P08249)): 1.397
- Expr Fold Change, OGDH (kidney mitochondria; β-RA treated vs untreated mice, oxoglutarate dehydrogenase (Q60597)): 2.05
- Expr Fold Change, PDHA1 (kidney mitochondria; β-RA treated vs untreated mice, pyruvate dehydrogenase E1 subunit alpha 1 (P35486)): 1.61
- Expr Fold Change, PDHB (kidney mitochondria; β-RA treated vs untreated mice, pyruvate dehydrogenase E1 subunit beta (Q9D051)): 1.711
- Area of the adipocytes (white adipocytes): normalizes
- Number of adipocytes per area (white adipocytes): normalizes
- Hypertrophy of WAT (white adipocytes) (white adipocytes; H&E staining): prevents hypertrophy of WAT
- Levels of CoQ9 in WAT [5]: increased said levels, achieving the normalization thereof
- Levels of biosynthetic protein Coq5 in WAT [5]: increase
- Levels of biosynthetic protein Coq7 in WAT [5]: increase in the levels of Coq7
- 3T3L1 preadipocyte proliferation (3T3L1 preadipocytes): induces an inhibition
- Body weight [6]: reduces the body weight
- Proliferative capacity of C2C12 myoblasts (C2C12 myoblasts): did not have a significant effect
- β-RA levels, Brain ([7]; brain): 1.26 ± 0.58 ng of β-RA/mg of protein
- β-RA levels, Kidney ([7]; kidney): 43.02 ± 16.51 ng of β-RA/mg of protein
- β-RA levels, Liver ([7]; liver): 7.04 ± 2.96 ng of β-RA/mg of protein
- β-RA levels, Muscle ([7]; skeletal muscle): 20.28 ± 9.39 ng of β-RA/mg of protein
